# Like-named read-outs stand apart in the source and are kept apart here.
# What was measured:
# MIA PaCa-2 cells = test: Growth inhibition activity on KRAS-G12C mutant cell line (CellTiter-Glo 3D); assay type: cell-based, human; conditions: MIA PaCa-2, 3-day culture with compound
# Procedure: MIA PaCa-2 cells (given by Sumitomo Dainippon Pharma Co., Ltd.), which are a KRAS-G12C mutant human pancreas cancer cell line, were suspended in a 10% fetal bovine serum-containing RPMI1640 medium (manufactured by Fujifilm Wako Pure Chemical Corporation). The cell suspension was seeded into each well of a 384-well U bottom microplate and cultured in an incubator containing 5% CO2 gas at 37° C. for 1 day. The compounds obtained in the “Preparation of Compounds” section were used as test compounds and were dissolved in DMSO, respectively, and each test compound was diluted with DMSO to give a concentration 500 times the final concentration. The resultant solution of the test compound in DMSO was diluted with the medium used for suspending cells and added to each well of the cell-culture plate to give a DMSO final concentration of 0.2%, followed by culture in an incubator containing 5% CO2 gas at 37° C. for another 3 days. The cell count after 3-day culture in the presence of the test compound was measured using CellTiter-Glo 3D Reagent (manufactured by Promega Corporation). All wells were added with CellTiter-Glo 3D Reagent and mixed for 10 minutes. 30 minutes after mixing, luminescence was measured by a plate reader. The growth inhibition rate was calculated from the following equation, and the concentration of the test compound at which 50% inhibition was achieved (IC50 (nM)) was determined.
# [formula] • T: the emission intensity in a well into which a test compound was added. • C: the emission intensity in a well into which a test compound was not added.
# [1] = molecular target: T1, interaction between GMPPNP-bound recombinant K-Ras4B G12C mutant protein and cRAF RAS-binding domain (cRAF-RBD) (Homo sapiens, UniProt P01116, G12C); test: Inhibitory activity on interaction between KRAS G12C and cRAF (Alpha technology)
# T1 construct: His-tag (N)
# T1 sequence (P01116 with tags, fused parts or gaps isoform P01116-2 G12C): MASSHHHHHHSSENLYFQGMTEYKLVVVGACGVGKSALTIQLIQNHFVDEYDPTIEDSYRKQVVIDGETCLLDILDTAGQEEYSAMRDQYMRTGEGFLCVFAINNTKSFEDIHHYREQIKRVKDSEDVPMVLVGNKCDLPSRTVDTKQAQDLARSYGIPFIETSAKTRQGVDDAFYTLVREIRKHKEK
# Procedure: Interaction between recombinant K-Ras4B G12C mutant protein (amino acids 1-169, SEQ ID NO:2) and cRAF RAS-binding domain (cRAF-RBD, amino acids 50-132, Jena Biosciences GmbH) was measured using Alpha technology (PerkinElmer Inc.).
# Recombinant KRAS G12C protein with an N-terminal His-tag was expressed in E. coli and purified by affinity chromatography. To prepare GTP-bound form and GDP-bound form of KRAS G12C protein, 50 μM KRAS G12C protein was incubated with 1 mM GMPPNP (Guanosine-5′-[(β,γ)-imido]triphosphate, Tetralithium salt) (Jena Bioscience GmbH) and 1 mM GDP, respectively, in a loading buffer (20 mM Tris-HCl (pH 7.5), 50 mM NaCl, 1 mM DTT and 2.5 mM EDTA) for 1 hour on ice. After the incubation, MgCl2 was added to a final concentration of 10 mM, followed by incubation at room temperature for 30 minutes. The mixture was allowed to pass through a NAP-5 column to remove free nucleotides and purified, and the resultant nucleotide-bound KRAS G12C protein was used for compound evaluation.
# For the measurement of the inhibitory activity of compounds on interaction between KRAS G12C and cRAF-RBD, GMPPNP-bound KRAS G12C protein was incubated with various concentrations of compound in a reaction buffer (20 mM Tris-HCl (pH 7.5), 100 mM NaCl, 1 mM MgCl2, 1 mM TCEP, 0.1% Tween 20) at 25° C. for 1 hour. After the incubation, recombinant cRAF-RBD and Alpha detection reagents were added and incubated at room temperature for 1.5 hours for binding. Interaction of KRAS G12C and cRAF-RBD was monitored by measuring Alpha signal. Inhibition % was calculated using the signal from the reaction without test compound (DMSO control) as 0% inhibition and the signal from the reaction using GDP-bound KRAS G12C in place of GMPPNP-bound KRAS G12C as 100% inhibition. IC50 values were calculated from dose titration curve using curve fitting by XLfit software (IDBS).
# [2] = GMPPNP-bound KRAS G12C incubated with compound 25° C. 1 hour, Table 2, read-out: IC50
# [3] = Homo sapiens, MIA PaCa-2, 72 h, Table 3-1
# [4] = GMPPNP-bound KRAS G12C incubated with compound 25° C. 1 hour, Table 2-1, read-out: IC50
# [5] = IC50, GMPPNP-bound KRAS G12C incubated with compound 25° C. 1 hour, Table 2-1
Compound,IC50 (MIA PaCa-2 cells; Table 3) [nM],"IC50 [1, 2] [nM]",IC50 (MIA PaCa-2 cells; [3]) [nM],"IC50 [1, 4] [nM]","IC50 [1, 5] [nM]"
"Cc1nc2c3c(c(C(F)(F)F)cc2n1C)-c1cccn2c(C(=O)c4cc(F)c(NC(=O)/C=C/CNC5(C)COC5)c(F)c4)cc(c12)CCO3 (single isomer, unassigned) [Example 31-2, (E)-N-(4-(9,10-dimethyl-7-(trifluoromethyl)-13,14-dihydro-9H-imidazo[4″,5″:5′,6′]benzo[1′,2′:2,3]oxocino[4,5,6-hi]indolizine-2-carbonyl)-2,6-difluorophenyl)-4-((3-methyloxetan-3-yl)amino)but-2-enamide]",9200,> 6700,–,–,–
"Cc1nc2c3c(c(C(F)(F)F)cc2n1C)-c1cccn2c(C(=O)c4cc(F)c(NC(=O)/C=C/CN(C)C)c(F)c4)cc(c12)CCO3 (single isomer, unassigned) [Example 38-1]",8300,> 6700,–,–,–
"Cc1nc2c3c(c(C(F)(F)F)cc2n1C)-c1cccn2c(C(=O)c4cc(F)c(NC(=O)/C=C/CN(C)C)c(F)c4)cc(c12)CCO3 (single isomer, unassigned) [Example 38-2]",19,27,–,–,–
"CO[C@H]1CC[C@H](NC/C=C/C(=O)Nc2c(F)cc(C(=O)c3cc4c5c(cccn35)-c3c(C(F)(F)F)cc5c(nc(C)n5C)c3OC(C)C4)cc2F)CC1 (single isomer, unassigned) [Example 42-1, (E)-N-(2,6-difluoro-4-(9,10,13-trimethyl-7-(trifluoromethyl)-13,14-dihydro-9H-imidazo[4″,5″:5′,6′]benzo[1′,2′:2,3]oxocino[4,5,6-hi]indolizine-2-carbonyl)phenyl)-4-(((1r,4r)-4-methoxycyclohexyl)amino)but-2-enamide]",6,11,–,–,–
"CO[C@H]1CC[C@H](NC/C=C/C(=O)Nc2c(F)cc(C(=O)c3cc4c5c(cccn35)-c3c(C(F)(F)F)cc5c(nc(C)n5C)c3OC(C)C4)cc2F)CC1 (single isomer, unassigned) [Example 42-2, (E)-N-(2,6-difluoro-4-(9,10,13-trimethyl-7-(trifluoromethyl)-13,14-dihydro-9H-imidazo[4″,5″:5′,6′]benzo[1′,2′:2,3]oxocino[4,5,6-hi]indolizine-2-carbonyl)phenyl)-4-(((1r,4r)-4-methoxycyclohexyl)amino)but-2-enamide]",450,1100,–,–,–
"Cc1nc2c3c(c(C(F)(F)F)cc2n1C)-c1cccn2c(C(=O)c4cc(F)c(NC(=O)/C=C/CNC5(C)CCOC5)c(F)c4)cc(c12)CCO3 (single isomer, unassigned) [Example 52]",–,–,1.44,4.55,–
"Cc1nc2c3c(c(C(F)(F)F)cc2n1C)-c1cccc2c(C(=O)c4cc(F)c(NC(=O)/C=C/CNC5(C)COC5)c(F)c4)cn(c12)CCN3C (single isomer, unassigned) [Example 54]",–,–,5.39,–,22.1
"CO[C@H]1CC[C@H](NC/C=C/C(=O)Nc2c(F)cc(C(=O)c3cn4c5c(cccc35)-c3c(C(F)(F)F)cc5c(nc(C)n5C)c3N(C)CC4)cc2F)CC1 (single isomer, unassigned) [Example 55, (E)-N-(2,6-difluoro-4-(8,9,11-trimethyl-6-(tri-fluoromethyl)-8,11,12,13-tetrahydroimidazo[4″,5″: 5′,6′]benzo[1′,2′:5,6][1,4]-diazocino[7,8,1-hi]indole-2-carbonyl)phenyl)-4-(((1r,4r)-4-methoxycyclo-hexyl)amino)but-2-en-amide]",–,–,3.36,–,11.7
"CO[C@H]1CC[C@H](NC/C=C/C(=O)Nc2c(F)cc(C(=O)c3cn4c5c(cccc35)-c3c(C)cc5c(nc(C)n5C)c3N(C)CC4)cc2F)CC1 (single isomer, unassigned) [Example 62]",–,–,6.91,–,17.4
"CO[C@H]1CC[C@H](NC/C=C/C(=O)Nc2c(F)cc(C(=O)c3cc4c5c(cccn35)-c3c(C(F)(F)F)cc5c(nc(C)n5C)c3N(C)CC4)cc2F)CC1 (single isomer, unassigned) [Example 63, (E)-N-(2,6-difluoro-4-(9,10,12-trimethyl-7-(tri-fluoromethyl)-9,12,13,14-tetrahydroimidazo-[4″,5″:5′,6′]benzo[1′,2′: 2,3]azocino[4,5,6-hi]-indolizine-2-carbonyl)-phenyl)-4-(((1r,4r)-4-methoxycyclohexyl)-amino)but-2-enamide]",–,–,2.48,14.2,–
"CO[C@H]1CC[C@H](NC/C=C/C(=O)Nc2c(F)cc(C(=O)c3c(C)c4c5c(cccn35)-c3c(C(F)(F)F)cc5c(nc(C)n5C)c3OCC4)cc2F)CC1 (single isomer, unassigned) [Example 64, (E)-N-(2,6-difluoro-4-(1,9,10-trimethyl-7-(tri-fluoromethyl)-13,14-dihydro-9H-imidazo-[4″,5″:5′,6′]benzo[1′,2′: 2,3]oxocino[4,5,6-hi]-indolizine-2-carbonyl)-phenyl)-4-(((1r,4r)-4-methoxycyclohexyl)-amino)but-2-enamide]",–,–,11,14.2,–
"Cc1cc2c(nc(C)n2C)c2c1-c1cccc3c(C(=O)c4cc(F)c(NC(=O)/C=C/CNC5(C)COC5)c(F)c4)cn(c13)CCN2C (single isomer, unassigned) [Example 65, (E)-N-(2,6-difluoro-4-(6,8,9,11-tetramethyl-8,11,12,13-tetrahydro-imidazo[4″,5″:5′,6′]benzo-[1′,2′:5,6][1,4]diazocino-[7,8,1-hi]indole-2-carbon-yl)phenyl)-4-((3-methyl-oxetan-3-yl)amino)but-2-enamide]",–,–,95.1,–,69.5
"CO[C@H]1CC[C@H](NC/C=C/C(=O)Nc2c(F)cc(C(=O)c3cc4c5c(cccn35)-c3c(C)cc5c(nc(C)n5C)c3N(C)CC4)cc2F)CC1 (single isomer, unassigned) [Example 69, (E)-N-(2,6-difluoro-4-(7,9,10,12-tetramethyl-9,12,13,14-tetrahydro-imidazo[4″,5″:5′,6′]benzo-[1′,2′:2,3]azocino[4,5,6-hi]indolizine-2-carbonyl)-phenyl)-4-(((1r,4r)-4-methoxycyclohexyl)-amino)but-2-enamide]",–,–,15.5,19.8,–
"Cc1nc2c3c(c(C(F)(F)F)cc2n1C)-c1cccn2c(C(=O)c4cc(F)c(NC(=O)/C=C/CNC5(C)CCOCC5)c(F)c4)cc(c12)CCN3C (single isomer, unassigned) [Example 70, (E)-N-(2,6-difluoro-4-(9,10,12-trimethyl-7-(tri-fluoromethyl)-9,12,13,14-tetrahydroimidazo[4″,5″: 5′,6′]benzo[1′,2′:2,3]-azocino[4,5,6-hi]indol-izine-2-carbonyl)phenyl)-4-((4-methyltetrahydro-2H-pyran-4-yl)amino)but-2-enamide]",–,–,2.49,9.85,–
"Cc1nc2c3c(c(C(F)(F)F)cc2n1C)-c1cccn2c(C(=O)c4cc(F)c(NC(=O)/C=C/CNC5(C)COC5)c(F)c4)cc(c12)CCN3C (single isomer, unassigned) [Example 71, (E)-N-(2,6-difluoro-4-(9,10,12-trimethyl-7-(trifluoromethyl)-9,12,13,14-tetrahydroimidazo[4″,5″:5′,6′]benzo[1′,2′:2,3]azocino[4,5,6-hi]indolizine-2-carbonyl)phenyl)-4-((3-methyloxetan-3-yl)amino)but-2-enamide]",–,–,9.6,20.2,–
